Data from paper PMC7914897, “Cytotoxic Potential of a-Azepano- and 3-Amino-3,4-SeCo-Triterpenoids” (International Journal of Molecular Sciences, 2021).
Where two headings read alike, the source gives them in different places.

Columns and labels:
[1] = test system: NIH 3T3 (non-malignant mouse fibroblasts); assay: SRB cytotoxicity assay, 72 h; type: cell-based; conditions: Mus musculus, NIH3T3; NIH 3T3, 72 h, cut-off 30 µM; read-out: EC50
Experimental: The cytotoxicity of compounds 1–20 was evaluated by means of a colorimetric sulforhodamine B (SRB) assay. For all compounds, the EC50 values were determined for the human tumor cell lines A375 (malignant melanoma), HT29 (colorectal carcinoma), MCF-7 (breast carcinoma), A2780 (ovarian carcinoma), FaDu (hypopharyngeal carcinoma), and NIH 3T3 (non-malignant mouse fibroblasts).
In short, exponentially growing cells were seeded into 96-well plates on day 0 at the appropriate cell densities to prevent confluence of the cells during the period of experiment. After 24 h, the cells were treated with serial dilutions of the compounds (0–30 µM) for 72 h. The final concentration of DMSO never exceeded 0.5%, which was non-toxic to the cells. After a 72 h treatment, the supernatant medium from the 96-well plates was discarded, and the cells were fixed with 10% TCA. For a thorough fixation, the plates were allowed to rest at 4 °C. After fixation, the cells were washed in a strip washer. The washing was done four times with water using alternate dispensing and aspiration procedures. The plates were then dyed with 100 µL of 0.4% SRB for about 20 min. After dying, the plates were washed with 1% acetic acid to remove the excess of the dye and allowed to air-dry overnight. Tris base solution (200 µL, 10 mM) was added to each well and absorbance was measured at λ = 570 nm (using a 96 well plate reader, Tecan Spectra, Crailsheim, Germany). The percentages of surviving cells relative to untreated controls were determined.

[2] = test system: OVCAR-4 (Ovarian cancer); assay: NCI-60 screen (SRB, 48 h); type: cell-based; conditions: Homo sapiens
[3] = test system: BT-549 (Breast cancer); assay: NCI-60 screen (SRB, 48 h); type: cell-based; conditions: Homo sapiens
[4] = test system: MDA-MB-468 (Breast cancer); assay: cells; conditions: Homo sapiens
[5] = test system: Colon Cancer subpanel; assay: NCI-60 screen, subpanel; conditions: Homo sapiens
[6] = test system: Renal Cancer subpanel; assay: NCI-60 screen, subpanel; conditions: Homo sapiens
[7] = test system: EKVX (NSC lung cancer); assay: NCI-60 screen (SRB, 48 h); conditions: Homo sapiens
[8] = test system: HOP-62 (NSC lung cancer); assay: NCI-60 screen (SRB, 48 h); conditions: Homo sapiens
[9] = test system: NCI-H322M (NSC lung cancer); assay: NCI-60 screen (SRB, 48 h); conditions: Homo sapiens
[10] = test system: HCT-116 (Colon cancer); assay: NCI-60 screen (SRB, 48 h); conditions: Homo sapiens
[11] = test system: SNB-75 (CNS cancer); assay: NCI-60 screen (SRB, 48 h); conditions: Homo sapiens
[12] = test system: UACC-62 (Melanoma); assay: NCI-60 screen (SRB, 48 h); conditions: Homo sapiens
[13] = test system: OVCAR-8 (Ovarian cancer); assay: NCI-60 screen (SRB, 48 h); conditions: Homo sapiens
[14] = test system: NCI/ADR-RES (Ovarian cancer); assay: NCI-60 screen (SRB, 48 h); conditions: Homo sapiens
[15] = test system: SK-OV-3 (Ovarian cancer); assay: NCI-60 screen (SRB, 48 h); conditions: Homo sapiens
[16] = test system: 786-0 (Renal cancer); assay: NCI-60 screen (SRB, 48 h); conditions: Homo sapiens
[17] = test system: A498 (Renal cancer); assay: NCI-60 screen (SRB, 48 h); conditions: Homo sapiens
[18] = test system: ACHN (Renal cancer); assay: NCI-60 screen (SRB, 48 h); conditions: Homo sapiens
[19] = test system: SN12C (Renal cancer); assay: NCI-60 screen (SRB, 48 h); conditions: Homo sapiens
[20] = test system: PC-3 (Prostate cancer); assay: NCI-60 screen (SRB, 48 h); conditions: Homo sapiens
[21] = test system: MDA-MB-31/ATCC (Breast cancer); assay: NCI-60 screen (SRB, 48 h); conditions: Homo sapiens
[22] = test system: panel of approximately 60 cancer cell lines; assay: NCI-60 screen (SRB, 48 h), full panel

C[C@H]1[C@H](C)CC[C@]2(CO)CC[C@]3(C)C(=CC[C@@H]4[C@@]5(C)CCCNC(C)(C)[C@@H]5CC[C@]43C)[C@H]12 [Compound 4, azepanouvaol]
EC50 [1]: 2.77 ± 0.4 µM
IC (TGI) ([2]; OVCAR-4, 48 h): 3.79 µM
GI50 ([2]; OVCAR-4, read-out: GI50): 1.72 µM
GI50 ([3]; BT-549): 1.55 µM
IC (TGI) ([3]; BT-549, 48 h): 2.96 µM
GI50 ([4]; MDA-MB-468): 1.7 µM
IC (TGI) ([4]; MDA-MB-468, 48 h, read-out: TGI): 3.44 µM
CC50 ([4]; MDA-MB-468, read-out: LC50): 6.98 µM
IC (TGI) ([5]; 48 h, read-out: TGI MG_MID): 3.07 µM
GI50 ([5]; read-out: GI50 MG_MID): 1.52 µM
CC50 ([5]; read-out: LC50 MG_MID): 6.16 µM
IC (TGI) ([6]; 48 h, read-out: TGI MG_MID): 3.2 µM
GI50 ([6]; read-out: GI50 MG_MID): 1.47 µM
CC50 ([6]; read-out: LC50 MG_MID): 6.11 µM
GI50 [7]: 1.66 µM
IC (TGI) ([7]; 48 h, read-out: TGI): 3.29 µM
CC50 ([7]; read-out: LC50): 6.53 µM
GI50 ([8]; HOP-62): 1.81 µM
IC (TGI) ([8]; HOP-62, 48 h, read-out: TGI): 3.49 µM
CC50 ([8]; HOP-62, read-out: LC50): 6.52 µM
GI50 [9]: 1.73 µM
IC (TGI) ([9]; 48 h, read-out: TGI): 3.19 µM
CC50 ([9]; read-out: LC50): 5.89 µM
GI50 ([10]; HCT-116): 1.49 µM
activity at 10 µM ([10]; HCT-116, 48 h, read-out: Growth % of the Most Sensitive Cell Lines): -94.7%
IC (TGI) ([10]; HCT-116, 48 h, read-out: TGI): 2.81 µM
CC50 ([10]; HCT-116, read-out: LC50): 5.31 µM
GI50 ([11]; SNB-75): 1.49 µM
IC (TGI) ([11]; SNB-75, 48 h, read-out: TGI): 2.9 µM
CC50 ([11]; SNB-75, read-out: LC50): 5.63 µM
GI50 ([12]; UACC-62): 1.85 µM
IC (TGI) ([12]; UACC-62, 48 h, read-out: TGI): 3.35 µM
CC50 ([12]; UACC-62, read-out: LC50): 6.06 µM
GI50 ([13]; OVCAR-8): 1.96 µM
IC (TGI) ([13]; OVCAR-8, 48 h, read-out: TGI): 3.61 µM
CC50 ([13]; OVCAR-8, read-out: LC50): 6.67 µM
GI50 [14]: 1.76 µM
IC (TGI) ([14]; 48 h, read-out: TGI): 3.47 µM
CC50 ([14]; read-out: LC50): 6.84 µM
GI50 ([15]; SK-OV-3): 2.54 µM
IC (TGI) ([15]; SK-OV-3, 48 h, read-out: TGI): 3.97 µM
CC50 ([15]; SK-OV-3, read-out: LC50): 35.2 µM
GI50 ([16]; 786-0): 1.6 µM
IC (TGI) ([16]; 786-0, 48 h, read-out: TGI): 3.06 µM
CC50 ([16]; 786-0, read-out: LC50): 5.85 µM
GI50 ([17]; A498): 1.63 µM
IC (TGI) ([17]; A498, 48 h, read-out: TGI): 3.29 µM
CC50 ([17]; A498, read-out: LC50): 6.63 µM
GI50 [18]: 1.69 µM
IC (TGI) ([18]; 48 h, read-out: TGI): 3.06 µM
CC50 ([18]; read-out: LC50): 5.54 µM
GI50 [19]: 1.64 µM
IC (TGI) ([19]; 48 h, read-out: TGI): 3.11 µM
CC50 ([19]; read-out: LC50): 5.87 µM
GI50 ([20]; PC-3): 1.55 µM
IC (TGI) ([20]; PC-3, 48 h, read-out: TGI): 2.97 µM
CC50 ([20]; PC-3, read-out: LC50): 5.66 µM
GI50 [21]: 1.88 µM
IC (TGI) ([21]; 48 h, read-out: TGI): 3.48 µM
CC50 ([21]; read-out: LC50): 6.43 µM
Positive Cytostatic Effect (cell lines with percent growth 0 to 50 / total) ([22]; 1 dose 10 µM): 18/59
Positive Cytotoxic Effect (cell lines with percent growth < 0 / total) ([22]; 1 dose 10 µM): 40/59
number of cancer cell lines the compound was active against ([22]; 1 dose 10 µM): 57 cell lines
activity at 10 µM ([22]; Homo sapiens, 48 h, read-out: Mean Growth, %): -31.9%
activity at 10 µM ([22]; Homo sapiens, 48 h, read-out: Range of Growth, %): -99 to 23%
IC (TGI) ([22]; Homo sapiens, 48 h, read-out: TGI MG_MID60, average over all cell lines): 3.31 µM
GI50 ([22]; Homo sapiens, read-out: GI50 MG_MID60): 1.65 µM
GI50 ([22]; Homo sapiens, read-out: GI50 against all human tumor cell lines): < 3 µM
GI50 ([22]; Homo sapiens, read-out: GI50 against the most sensitive cell lines): 0.2 to 0.94 µM
CC50 ([22]; Homo sapiens, read-out: LC50 MG_MID60, average over all cell lines): 7.64 µM
